Results taken from PubChem BioAssay AID1963976 (Molecular Pharmacology Branch, DTP, NCI, 2024).
Several values for one entry are separate records, joined by “and”; a condition that tells them apart may be missing. Identical values can stand only once.

Test system: 435261-313-R-J1-PDC tumor spheroid viability
Assay: Anticancer human tumor 435261-313-R-J1-PDC patient-derived colon adenocarcinoma cell line growth inhibition [PI3K]
Settings: spheroids with HUVEC and MSC; for viability, T/C: stronger effect = lower value
Description: Combinatorial screen of targeted agents with the PI3K inhibitors inavolisib, alpelisib, duvelisib, and copanlisib in multi-cell type tumor spheroids
A high-throughput screen of multi-cell type tumor spheroids was designed to identify active combinations of targeted small molecules and PI3K pathway inhibitors. Complex spheroids include a stromal component modeled by human endothelial cells (HUVEC) and fibroblasts modeled by human mesenchymal stem cells (MSCs). The concentration ranges selected for each drug and investigational agent were based upon clinically achievable concentrations if the clinical Cmax of the agent was known.
Compounds. The drugs and investigational agents: inavolisib (NSC800729), alpelisib (NSC765974), duvelisib (NSC772469), copanlisib (NSC816437), ipatasertib (NSC767898), afuresertib (NSC778305), talazoparib (NSC767125), sapanisertib (NSC764658), selumetinib (NSC741078), tovorafenib (DAY101, NSC766906), vemurafenib (NSC761431), ravoxertinib (NSC781343), sotorasib (NSC818433), MRTX1133 (NSC 836407), abemaciclib (NSC 768073), palbociclib (NSC758247), venetoclax (NSC 766270), SY5609 (NSC837396), enzalutamide (NSC755605), and darolutamide (NSC825331), were obtained from the National Cancer Institute (NCI) Developmental Therapeutics Program Chemical Repository. The FDA-approved anticancer drug set is available from the NCI Developmental Therapeutics Program. […] The stock solutions were prepared in dimethyl sulfoxide (DMSO, Sigma-Aldrich, St. Louis, MO, cat. D2650) at 800-fold the tested concentration and stored at -70 degrees C prior to their use. All drugs and investigational agents were tested over a range starting from a high concentration at or near the clinical Cmax and decreasing in half-log increments. If the clinical Cmax for an agent had not been determined, the highest concentration tested was 10 microM.
Cell Culture. All cells were maintained in an incubator at 37 degrees C and 5% CO2 with 95% humidity. The PDC lines were cultured according to standard operating procedures established by the NCI PDMR (https://pdmr.cancer.gov/sops/default.htm). All PDCs were thawed and cultured in Matrigel-coated flasks prepared with a working solution of 1X Ham's F-12 nutrient mix, without supplementation (Invitrogen, Waltham, MA, cat. 11765054), 100 U/mL penicillin-streptomycin (Invitrogen, cat. 15140122), and 2.5% Matrigel (Corning Inc., Corning, NY, cat. 354248) for the first three passages. The 354836-022-R-J1-PDC, 475296-252-R-J1-PDC, and 997726-040-R-J2-PDC lines were cultured in 6A media, which includes advanced DMEM/F-12 (Thermo Fisher Scientific, cat. 12634028), 10 mM HEPES (Thermo Fisher Scientific, cat. 15630080), 1X GlutaMAX supplement (Thermo Fisher Scientific, cat. 35050061), 0.1 mg/mL primocin (InvivoGen, San Diego, CA, cat. ant-pm-2), 10% defined fetal bovine serum, heat inactivated (HyClone Laboratories Inc., Logan, UT, cat. SH30070.03HI), 50% L-WRN conditioned media (ATCC, cat. CRL-3276), 1.25 mM N-Acetyl-L-cysteine (Sigma-Aldrich, cat. A9165), 10 mM nicotinamide (Sigma-Aldrich, cat. N0636), 1X B-27 supplement (Thermo Fisher Scientific, cat. 17504044), 1X N-2 supplement (Thermo Fisher Scientific, cat. 17502048), and 10 microM Y-27632 dihydrochloride (Tocris Bioscience, Bristol, United Kingdom, cat. 1254). The 624824-186-R-J2-PDC line was cultured in 6C/Colon 1B media, which includes all 6A media components plus 50 ng/mL human EGF recombinant protein (Thermo Fisher Scientific, cat. PHG0311). […]

[1] = curve of first compound, second compound 0.0316 µM
[2] = curve of first compound, second compound 0.1 µM
[3] = curve of first compound, second compound 0.316 µM
[4] = curve of first compound, second compound 1 µM
[5] = curve of first compound, second compound 3.16 µM
[6] = curve of first compound, second compound 10 µM
[7] = second compound 0.0316 µM, first compound 0.0316 µM
[8] = second compound 0.0316 µM, first compound 0.1 µM
[9] = second compound 0.0316 µM, first compound 0.316 µM
[10] = second compound 0.0316 µM, first compound 1 µM
[11] = second compound 0.0316 µM, first compound 3.16 µM
[12] = second compound 0.0316 µM, first compound 10 µM
[13] = second compound 0.1 µM, first compound 0.0316 µM
[14] = second compound 0.1 µM, first compound 0.1 µM
[15] = second compound 0.1 µM, first compound 0.316 µM
[16] = second compound 0.1 µM, first compound 1 µM
[17] = second compound 0.1 µM, first compound 3.16 µM
[18] = second compound 0.1 µM, first compound 10 µM
[19] = second compound 0.316 µM, first compound 0.0316 µM
[20] = second compound 0.316 µM, first compound 0.1 µM
[21] = second compound 0.316 µM, first compound 0.316 µM
[22] = second compound 0.316 µM, first compound 1 µM
[23] = second compound 0.316 µM, first compound 3.16 µM
[24] = second compound 0.316 µM, first compound 10 µM
[25] = second compound 1 µM, first compound 0.0316 µM
[26] = second compound 1 µM, first compound 0.1 µM
[27] = second compound 1 µM, first compound 0.316 µM
[28] = second compound 1 µM, first compound 1 µM
[29] = second compound 1 µM, first compound 3.16 µM
[30] = second compound 1 µM, first compound 10 µM
[31] = second compound 3.16 µM, first compound 0.0316 µM
[32] = second compound 3.16 µM, first compound 0.1 µM
[33] = second compound 3.16 µM, first compound 0.316 µM
[34] = second compound 3.16 µM, first compound 1 µM
[35] = second compound 3.16 µM, first compound 3.16 µM
[36] = second compound 3.16 µM, first compound 10 µM
[37] = second compound 10 µM, first compound 0.0316 µM
[38] = second compound 10 µM, first compound 0.1 µM
[39] = second compound 10 µM, first compound 0.316 µM
[40] = second compound 10 µM, first compound 1 µM
[41] = second compound 10 µM, first compound 3.16 µM
[42] = second compound 10 µM, first compound 10 µM

With CCCS(=O)(=O)Nc1ccc(F)c(C(=O)c2c[nH]c3ncc(-c4ccc(Cl)cc4)cc23)c1F + Cc1nc(NC(=O)N2CCCC2C(N)=O)sc1-c1ccnc(C(C)(C)C(F)(F)F)c1 the IC50 [1] was 5.15 µM, the IC50 [2] was 4.87 µM and the IC50 [3] was 4.37 µM. The IC50 [4] was 0.0316 µM, the IC50 [5] was < 0.0316 µM and the IC50 [6] was < 0.0316 µM. For the same compound, the viability, T/C [7] was 68.7%, the viability, T/C [8] was 117% and the viability, T/C [9] was 121%. The viability, T/C [10] was 107%, the viability, T/C [11] was 83% and the viability, T/C [12] was 5.07%. The viability, T/C [13] was 78.3%, the viability, T/C [14] was 95.7% and the viability, T/C [15] was 104%. It also gave a viability, T/C [16] of 83.9%, a viability, T/C [17] of 77% and a viability, T/C [18] of 6.18%. For the same compound, the viability, T/C [19] was 57.6%, the viability, T/C [20] was 78% and the viability, T/C [21] was 70.4%. The viability, T/C [22] was 64.5%, the viability, T/C [23] was 67.8% and the viability, T/C [24] was 4.86%. For the same compound, the viability, T/C [25] was 25.2%, the viability, T/C [26] was 37.8% and the viability, T/C [27] was 73.2%. For the same compound, the viability, T/C [28] was 59.3%, the viability, T/C [29] was 38.3% and the viability, T/C [30] was 4.97%. The viability, T/C [31] was 17.6%, the viability, T/C [32] was 21.1% and the viability, T/C [33] was 32.8%. The viability, T/C [34] was 35.9%, the viability, T/C [35] was 24.6% and the viability, T/C [36] was 4.64%. The viability, T/C [37] was 11.3%, the viability, T/C [38] was 12.2% and the viability, T/C [39] was 14.2%. For the same compound, the viability, T/C [40] was 15.7%, the viability, T/C [41] was 14.9% and the viability, T/C [42] was 1.88%.
Cn1ncc(Cl)c1-c1cc(C(=O)NC(CN)Cc2cccc(F)c2)sc1Cl (stereo unspecified) was tested, and the viability, T/C (compound 0.0316 µM) was 104% and 107% and 76.9%, the viability, T/C (compound 0.1 µM) was 82.6% and 66.1% and 92.1% and the viability, T/C (compound 0.316 µM) was 70.9% and 90.8% and 66.1%. For the same compound, the viability, T/C (compound 1 µM) was 26.1% and 32.2% and 54.4%, the viability, T/C (compound 3.16 µM) was 20.6% and 20.1% and 23.6% and the viability, T/C (compound 10 µM) was 8.15% and 8% and 9.52%. For the same compound, the IC50 (curve of compound) was 0.641 µM and 0.571 µM and 0.978 µM.
With C#Cc1c(F)ccc2cc(O)cc(-c3ncc4c(N5CC6CCC(C5)N6)nc(OCC56CCCN5CC(F)C6)nc4c3F)c12 (stereo unspecified) + CC(Nc1ncnc2nc[nH]c12)c1cc2cccc(Cl)c2c(=O)n1-c1ccccc1 the IC50 [1] was 6.85 µM, the IC50 [2] was > 10 µM and the IC50 [3] was 7.21 µM. For the same compound, the IC50 [4] was 5.49 µM, the IC50 [5] was 4.51 µM and the IC50 [6] was 0.319 µM. It also gave a viability, T/C [7] of 78.7%, a viability, T/C [8] of 100% and a viability, T/C [9] of 98.3%. For the same compound, the viability, T/C [10] was 89.3%, the viability, T/C [11] was 81.9% and the viability, T/C [12] was 34.5%. It also gave a viability, T/C [13] of 97.8%, a viability, T/C [14] of 109% and a viability, T/C [15] of 72.2%. For the same compound, the viability, T/C [16] was 82%, the viability, T/C [17] was 68.2% and the viability, T/C [18] was 56%. For the same compound, the viability, T/C [19] was 89%, the viability, T/C [20] was 85.3% and the viability, T/C [21] was 79.8%. It also gave a viability, T/C [22] of 105%, a viability, T/C [23] of 103% and a viability, T/C [24] of 33.2%. The viability, T/C [25] was 94.9%, the viability, T/C [26] was 70.4% and the viability, T/C [27] was 82.3%. It also gave a viability, T/C [28] of 103%, a viability, T/C [29] of 67% and a viability, T/C [30] of 31.4%. It also gave a viability, T/C [31] of 62%, a viability, T/C [32] of 66.2% and a viability, T/C [33] of 43.3%. The viability, T/C [34] was 90.6%, the viability, T/C [35] was 50.1% and the viability, T/C [36] was 32.7%. It also gave a viability, T/C [37] of 56.5%, a viability, T/C [38] of 46.9% and a viability, T/C [39] of 52.3%. For the same compound, the viability, T/C [40] was 34.9%, the viability, T/C [41] was 18.8% and the viability, T/C [42] was 13.7%.
